# Measurements as given in patent US5324502A, “Radiopharmaceuticals for imaging the heart” (priority 1992, dated 1994).
# Read-outs that look alike come from different tables or passages of the source.
# Tests used:
# [1] = rat, i.v.
# Procedure: The gallium-67 complexes are prepared by ligand exchange from gallium-67 chloride, employing the tris(acetylacetonato)gallium(III) complex as an intermediate. The Ga-67 acetylacetonate in ethanol is reacted with the chelating ligand or ligand precursor at elevated temperature to form rapidly the desired gallium radiopharmaceutical. […] The biodistribution of several radiopharmaceuticals was determined in rats following intravenous injection using techniques previously described (M. A. Green, Nuclear Medicine and Biology 14:59-61, 1987; E. John and M. A. Green, J. Medicinal Chemistry, 33:1764-1770, 1990).
# Under ether anesthesia, 1 to 3 μCi (0.1-0.2 mL) of no-carrier-added Ga-67 compound was administered by bolus injection into the femoral vein of male Sprague-Dawley rats. The ether anesthetized rats were sacrificed by decapitation at given time intervals post-injection, organs of interest were removed, weighed, and the gallium-67 activity counted. The biodistribution was calculated as a percentage of the injected dose per gram of tissue and percentage of injected dose per organ for each sample.
# [2] = Octanol/water partition coefficient of radiolabeled gallium complexes; format: physicochemical; conditions: octanol/tris buffer, pH 7
# Procedure: Octanol/water partition coefficients were measured by vortex mixing 1 mL of 1-octanol and 1 mL of isotonic Tris buffer (pH 7.0) with a 1-5 μL sample of the radiolabeled gallium complex. Following centrifugation at >1200 g for 5 minutes, the octanol and aqueous phases were sampled and counted in an automatic well counter.
smiles,measurement,setting,value
"COc1cc([O-])c(C=NCCCNCCNCCCN=Cc2c([O-])cc(OC)cc2OC)c(OC)c1.[67Ga+3] [(4,6-MeO2 Sal)2 BAPEN]","% Injected Dose per Gram Tissue, Blood",[1]; 1 min,0.66 ± 0.14 % Injected Dose per Gram Tissu
same,"% Injected Dose per Gram Tissue, Brain",[1]; 1 min,0.03 ± 0.01 % Injected Dose per Gram Tissu
same,"% Injected Dose per Gram Tissue, Heart",[1]; 1 min,1.52 ± 0.24 % Injected Dose per Gram Tissu
same,"% Injected Dose per Gram Tissue, Kidney (one)",[1]; 1 min,6.40 ± 0.92 % Injected Dose per Gram Tissu
same,"% Injected Dose per Gram Tissue, Liver",[1]; 1 min,4.72 ± 0.82 % Injected Dose per Gram Tissu
same,"% Injected Dose per Gram Tissue, Lungs",[1]; 1 min,0.81 ± 0.16 % Injected Dose per Gram Tissu
same,"% Injected Dose per Gram Tissue, Spleen",[1]; 1 min,0.61 ± 0.09 % Injected Dose per Gram Tissu
same,"% injected dose in heart, 1 min","[1]; 1 min, preliminary studies",1.04 ± 0.12 % injected dose
same,"% Injected Dose Per Gram of Tissue, Blood",[1]; 5 min,0.11 ± 0.01 % Injected Dose Per Gram of Tissue
same,"% Injected Dose Per Gram of Tissue, Brain",[1]; 5 min,0.01 ± 0.00 % Injected Dose Per Gram of Tissue
same,"% Injected Dose Per Gram of Tissue, Heart",[1]; 5 min,1.45 ± 0.20 % Injected Dose Per Gram of Tissue
same,"% Injected Dose Per Gram of Tissue, Kidney (1)",[1]; 5 min,6.10 ± 0.53 % Injected Dose Per Gram of Tissue
same,"% Injected Dose Per Gram of Tissue, Liver",[1]; 5 min,4.32 ± 0.53 % Injected Dose Per Gram of Tissue
same,"% Injected Dose Per Gram of Tissue, Lungs",[1]; 5 min,0.55 ± 0.05 % Injected Dose Per Gram of Tissue
same,"% Injected Dose Per Gram of Tissue, Spleen",[1]; 5 min,0.52 ± 0.15 % Injected Dose Per Gram of Tissue
same,"% Injected Dose per Gram Tissue, Blood",[1]; 15 min,0.07 ± 0.01 % Injected Dose per Gram Tissu
same,"% Injected Dose per Gram Tissue, Brain",[1]; 15 min,0.01 ± 0.00 % Injected Dose per Gram Tissu
same,"% Injected Dose per Gram Tissue, Heart",[1]; 15 min,1.22 ± 0.12 % Injected Dose per Gram Tissu
same,"% Injected Dose per Gram Tissue, Kidney (one)",[1]; 15 min,4.22 ± 0.30 % Injected Dose per Gram Tissu
same,"% Injected Dose per Gram Tissue, Liver",[1]; 15 min,2.19 ± 0.21 % Injected Dose per Gram Tissu
same,"% Injected Dose per Gram Tissue, Lungs",[1]; 15 min,0.42 ± 0.06 % Injected Dose per Gram Tissu
same,"% Injected Dose per Gram Tissue, Spleen",[1]; 15 min,0.43 ± 0.06 % Injected Dose per Gram Tissu
same,"% Injected Dose per Gram Tissue, Blood",[1]; 120 min,0.03 ± 0.00 % Injected Dose per Gram Tissu
same,"% Injected Dose per Gram Tissue, Brain",[1]; 120 min,0.01 ± 0.00 % Injected Dose per Gram Tissu
same,"% Injected Dose per Gram Tissue, Heart",[1]; 120 min,1.37 ± 0.12 % Injected Dose per Gram Tissu
same,"% Injected Dose per Gram Tissue, Kidney (one)",[1]; 120 min,2.77 ± 0.24 % Injected Dose per Gram Tissu
same,"% Injected Dose per Gram Tissue, Liver",[1]; 120 min,0.33 ± 0.01 % Injected Dose per Gram Tissu
same,"% Injected Dose per Gram Tissue, Lungs",[1]; 120 min,0.45 ± 0.11 % Injected Dose per Gram Tissu
same,"% Injected Dose per Gram Tissue, Spleen",[1]; 120 min,0.37 ± 0.06 % Injected Dose per Gram Tissu
same,"% injected dose in heart, 2 h","[1]; 2 h, preliminary studies",0.86 ± 0.11 % injected dose
same,Heart/Blood,"[1]; ratio, 1 min",2.34 ± 0.36
same,Heart/Liver,"[1]; ratio, 1 min",0.32 ± 0.03
same,Heart/Lungs,"[1]; ratio, 1 min",1.88 ± 0.18
same,Heart/Blood,"[1]; ratio, 5 min",13.28 ± 2.19
same,Heart/Liver,"[1]; ratio, 5 min",0.34 ± 0.04
same,Heart/Lung,"[1]; ratio, 5 min",2.64 ± 0.34
same,Heart/Blood,"[1]; ratio, 15 min",18.10 ± 0.91
same,Heart/Liver,"[1]; ratio, 15 min",0.56 ± 0.10
same,Heart/Lungs,"[1]; ratio, 15 min",2.98 ± 0.53
same,Heart/Blood,"[1]; ratio, 120 min",45.58 ± 3.96
same,Heart/Liver,"[1]; ratio, 120 min",4.12 ± 0.44
same,Heart/Lungs,"[1]; ratio, 120 min",3.27 ± 1.32
same,log P,[2],1.68
